Test results from publication PMC4445981, “The glutamate transport inhibitor DL-Threo-β-Benzyloxyaspartic acid (DL-TBOA) differentially affects SN38- and oxaliplatin-induced death of drug-resistant colorectal cancer cells” (BMC Cancer, 2015).

Columns and labels:
SLC1A1 = details: depending on the system and experimental setup; cited from earlier work
[1] = tested on: [3H]-D-Asp uptake (glutamate transporter activity) in HCT116-SN38 cells; test: [3H]-D-Asp uptake assay, HCT116-SN38; format: cell-based, human; details: HCT116-SN38, 100 nM [3H]-D-Asp, 6 min, 37 °C
Experimental: (§1) We therefore next determined glutamate transporter activity (as uptake of the substrate [^3H]-D-Asp following a 6-min incubation in buffer supplemented with a tracer concentration of 100 nM [^3H]-D-Asp). […] To determine which transporter(s) was responsible for the [^3H]-D-Asp uptake, we assessed the effect of DL-TBOA, a nonselective inhibitor of EAATs, and UCPH-101, a specific SLC1A3 inhibitor [16, 28, 29]. […] Basal [^3H]-D-Asp uptake was decreased by about 60 % in SN38-resistant compared to parental HCT116 cells, whereas that in SN38-resistant LoVo cells was nearly tripled compared to parental LoVo cells.
(§2) The [^3H]-D-Asp uptake assay was performed essentially as in [30]. Briefly, cells were split into poly-D-lysine-coated white 96-well plates (PerkinElmer). A similar number of cells were seeded for HCT116 parental, HCT116-SN38 and HCT116-Oxa cell lines (7 × 10^4 cells/well) and LoVo parental, Lovo-SN38 and Lovo-Oxa cell lines (6 × 10^4 cells/well). 16–24 h later, culture medium was aspirated, and cells were washed once with 100 μl assay buffer (Hank’s Buffered Saline Solution supplemented with 20 mM HEPES, 1 mM CaCl2 and 1 mM MgCl2, pH 7.4). 50 μl assay buffer supplemented with 100 nM [^3H]-D-Asp and test compounds as indicated was added, and the plate was incubated at 37 °C for 6 min. Non-specific [^3H]-D-Asp uptake was determined in wells with 3 mM L-glutamate. The assay mixture was quickly removed, and wells were washed with 2 × 100 μl ice-cold assay buffer, followed by 150 μl Microscint™20 scintillation fluid (PerkinElmer). The plate was shaken for 1 h and counted in a Wallac 1450 MicroBeta Trilux scintillation counter (GMI, Ramsey, MN).

CTR1 = CTR1 protein level by Western blotting; format: cell-based, human; details: 24 h
Experimental: Fig. 3 Effect of acute DL-TBOA and chemotherapy treatment on CTR1 protein level. Parental and drug-resistant HCT116 (a) and LoVo (b) cell lines were exposed to SN38 (0.8 μM) or oxaliplatin (20 μM), alone or in combination with 350 μM DL-TBOA as indicated for 24 h. Equal amounts of protein per lane were separated by SDS-PAGE and the protein levels of CTR1 were determined by Western blotting. Top: Representative Western blots (tubulin serves as a loading control), bottom: Densitometric quantification data summarized from 3 independent experiments per condition. Quantitative data are means with S.E.M. error bars of 3 independent experiments. *) p < 0.05, **) p < 0.01, ***) p < 0.001 compared to the control group without drug or TBOA treatment. Two-way ANOVA with Tukey post-test
Cells were grown to a confluence of 60-80 % and treated with chemotherapy, siRNA- or plasmid transfection as indicated. Cells were washed once in PBS, lysed in lysis buffer (1 % SDS, 0.1 M Tris pH 7.5, and 1 mM Na3VO4), sonicated, and protein content determined (DC assay, BioRad). Lysates were mixed 2:1with NuPage LDS sample buffer (Invitrogen). SDS-PAGE was carried out in NOVEX chambers with NuPAGE 10 % Bis-Tris gels under reducing and denaturing conditions, using BenchMark protein ladder (Invitrogen), and 15 μg protein per lane. […] Bands were scanned and quantified using UN-SCAN-IT (Silk Scientific).

SLC1A3 = details: depending on the system and experimental setup; cited from earlier work
[2] = tested on: SLC1A1 localization in HCT116 cells; test: Immunofluorescence analysis of SLC1A1 subcellular localization; format: cell-based, human; details: 48 h
Experimental: Immunofluorescence analysis was carried out essentially as in [47]. Cells grown on glass coverslips were fixed in 2 % paraformaldehyde, washed in TBST, permeabilized for 5 min (0.5 % Triton X-100 in TBST), blocked for 30 min in 5 % BSA in TBST, incubated with SLC1A1 primary antibody in TBST + 1 % BSA overnight at 4 °C, washed in TBST, and with Rhodamine-phalloidin and AlexaFluor488 conjugated secondary antibody (1:600 in TBS + 1 % BSA) for 1 h, followed by washing in TBST, and mounting in N-propyl-galleate mounting medium (2 % w/v in PBS/glycerol). DAPI was added for 3 min following incubation with the secondary antibody. Cells were visualized using the 60X/1.35 NA objective of an Olympus Bx63 epifluorescence microscope. […] Overlays were carried out using Adobe Photoshop software. No other image adjustment was performed.

p21^WAF1/Cip (p21) = test: p21 protein level by Western blotting; format: cell-based, human; details: for p21 protein level: 24 h, 0.8 μM SN38 or 20 μM oxaliplatin
Experimental: Cells were grown to a confluence of 60-80 % and treated with chemotherapy, siRNA- or plasmid transfection as indicated. Cells were washed once in PBS, lysed in lysis buffer (1 % SDS, 0.1 M Tris pH 7.5, and 1 mM Na3VO4), sonicated, and protein content determined (DC assay, BioRad). Lysates were mixed 2:1with NuPage LDS sample buffer (Invitrogen). SDS-PAGE was carried out in NOVEX chambers with NuPAGE 10 % Bis-Tris gels under reducing and denaturing conditions, using BenchMark protein ladder (Invitrogen), and 15 μg protein per lane. Proteins were transferred to PVDF membranes, which were Ponceau S stained, blocked for 1 h at 37 °C in 5 % nonfat dry milk in TBST (0.01 M Tris/HCl, 0.15 M NaCl, 0.1 % Tween 20, pH 7.4), incubated overnight at 4 °C with primary antibodies diluted in blocking buffer, washed in TBST, incubated with secondary antibodies for 1 h, washed in TBST, and developed using BCIP/NBT (KPL). Bands were scanned and quantified using UN-SCAN-IT (Silk Scientific).
Supplementary file 12885_2015_1405_MOESM3_ESM.tiff: Additional file 3: Figure S3. Effects of DL-TBOA on cell death and survival parameters after chemotherapy treatment of HCT116 cells. Parental and drug-resistant HCT116 cell lines seeded in 6-well dishes were exposed to SN38 (0.8 μM) or oxaliplatin (20 μM), alone or in combination with 350 μM DL-TBOA as indicated, for 24 h. Equal amounts of protein per lane were separated by SDS-PAGE and the protein levels of p21, and PARP-1 (full-length and cleaved, the latter indicated by arrowheads) were determined by Western blotting. Top: Representative Western blots, with p150 as loading control. Bottom: Densitometric quantifications based on 3 independent experiments per condition. Data are means with S.E.M. error bars of 3 independent experiments. *) p < 0.05, **) p < 0.01, ***) p < 0.001,****) p < 0.0001 compared to the control group without drug or TBOA treatment; #) p < 0.05 compared to controls without TBOA treatment. Two-way ANOVA with Tukey post-test.

[3] = tested on: [3H]-D-Asp uptake (glutamate transporter activity) in HCT116-PAR cells; test: [3H]-D-Asp uptake assay, HCT116-PAR; format: cell-based, human; details: HCT116-PAR, 100 nM [3H]-D-Asp, 6 min, 37 °C
Experimental: as §1, §2

[4] = read-out: IC50, [3H]-D-Asp uptake

SMILES | IC50 values in uptake assays (SLC1A1) | pIC50 ± S.E.M., [3H]-D-Asp uptake [1] | IC50 [1, 4] | effect on CTR1 protein level (CTR1; 350 μM DL-TBOA +/- SN38 (0.8 μM) or oxaliplatin (20 μM), HCT116 and LoVo lines) | IC50 values in uptake assays (SLC1A3) | effect on SLC1A1 localization ([2]; SN38-resistant HCT116 cells, 350 μM DL-TBOA added to chemotherapeutic treatment) | effect on intracellular SLC1A1 localization ([2]; oxaliplatin-resistant HCT116 cells, control and oxaliplatin-treated, 350 μM DL-TBOA) | effect on SLC1A1 localization ([2]; parental HCT116 cells, 350 μM DL-TBOA alone or with chemotherapeutic agents) | effect on cellular level of p21 (p21^WAF1/Cip (p21); DL-TBOA, HCT116 and LoVo cells) | pIC50 ± S.E.M., [3H]-D-Asp uptake [3] | IC50 [3, 4] | effect on CTR1 protein expression (CTR1; 20 μM oxaliplatin, all cell lines except parental HCT116, HCT116-Oxa, LoVo-Oxa) | SLC1A1 subcellular localization ([2]; parental HCT116 cells, 0.8 μM SN38 or 20 μM oxaliplatin) | p21 protein level (p21^WAF1/Cip (p21); SN38-resistant HCT116 cells) | p21 protein level (p21^WAF1/Cip (p21); parental HCT116 cells)
N[C@H](C(=O)O)[C@H](OCc1ccccc1)C(=O)O (racemic) [TBOA, DL-Threo-β-Benzyloxyaspartic acid] | low micromolar range | 5.83 ± 0.08 | 1500 nM | without detectable effects | low micromolar range | increased the fraction of SLC1A1 fluorescence localized to the perinuclear/nuclear compartment | partially reversed | no detectable effect on SLC1A1 localization | did not significantly alter | 5.75 ± 0.03 | 1800 nM | – | – | – | –
O=C(O)C(=O)O.[NH-][C@@H]1CCCC[C@H]1[NH-].[Pt+2] [oxaliplatin] | – | – | – | – | – | – | – | – | – | – | – | tended to reduce CTR1 protein expression | marked shift in SLC1A1 localization towards the perinuclear/nuclear region | retained | markedly induced
